# From article PMC12529164, “Design, Synthesis, Structure–Activity Relationships, and Preliminary Anticancer Properties of Menthol-Modified Coumarin Esters and 3,4-Dihydrocoumarin Derivatives” (ACS Omega, 2025)
# “And” between values parts separate entries of the source, which are not always exact repeats. Identical values can stand only once. Like-named read-outs stand apart in the source and are kept apart here.
# How the values were obtained:
# SW480 [1] = experiment: MTT cytotoxicity assay; format: cell-based, human
# Description: (§1) The human primary (SW480) and metastatic (SW620) colon cancer, metastatic prostate cancer (PC3), breast adenocarcinoma (MDA-MB-231) and human immortal keratinocyte (HaCaT) cell lines were recruited from the American Type Culture Collection (ATCC). The cells were cultured in the recommended medium according to protocols (RPMI 1640 for PC3, MEM for SW480 and SW620, as well as DMEM for MDA-MB-231 and HaCaT cells) with addition of 10% FBS, penicillin (100 U/mL), and streptomycin (100 μg/mL) and cultured in 37 °C/5% CO2 in a humidified incubator. Then, the cells were passaged at a confluence of 80–90% by a treatment with 0.25% trypsin (Gibco Life Technologies) and used for studies.
# (§2) They were added to 96-well plates with seeded normal and cancer cells (1 × 10^4 cells per well) and incubated for 72 h. MTT analysis was performed according to a previous study.
# PC3 [2] = experiment: MTT cytotoxicity assay; format: cell-based, human
# Description: as §1, §2
# MDA-MB-231 = experiment: MTT cytotoxicity assay; format: cell-based, human
# Description: as §1, §2
# SW620 [3] = experiment: MTT cytotoxicity assay; format: cell-based, human
# Description: as §1, §2
# [4] = system: tested cancer cell lines (SW480, SW620, PC3, MDA-MB-231); experiment: MTT assay, mean over tested cancer cell lines; format: cell-based; conditions: Homo sapiens, mean of the four cancer cell lines
# Description: They were added to 96-well plates with seeded normal and cancer cells (1 × 10^4 cells per well) and incubated for 72 h. MTT analysis was performed according to a previous study. […]
# Trypan blue assay = format: cell-based, human; conditions: human, HaCaT cells, compound at IC50, 72 h, mean
# Description: (§3) The total cell count was assessed by trypan blue exclusion dye assay using automated cell counter (Countess Invitrogen). Untreated cells were used as the control. Each experiment was repeated 5 times.
# SW480 [5] = experiment: Trypan blue assay; format: cell-based, human; conditions: SW480, compound at IC50, 72 h
# Description: as §3
# PC3 [6] = experiment: Trypan blue assay; format: cell-based, human; conditions: PC3, compound at IC50, 72 h
# Description: as §3
# SW620 [7] = experiment: Trypan blue assay; format: cell-based, human; conditions: SW620, compound at IC50, 72 h
# Description: as §3
# HaCaT [8] = experiment: Trypan blue assay; format: cell-based, human; conditions: compound at IC50, 72 h
# Description: as §3
# IL-6 in HaCaT cells = experiment: Interleukin-6 ELISA; format: cell-based, human; conditions: compound at IC50, 72 h
# Description: (§4) The concentration of Interleukin-6 (IL-6) was measured in cell culture supernatant using Interleukin IL-6 High Sensitivity ELISA kit (Diaclon SAS, Besancon Cedex, France). Cells (1 × 10^5 cells/well) were seeded in 12-well plates with medium for 24 h. […] After this incubation, the supernatants were collected and 100 μL of supernatant samples, control solutions and blank were added to precoated ELISA plate with the preceding plotting of the standard curve. Then 50 μL of diluted biotinylated antihuman interleukin-6 antibody was added and incubated at room temperature for 3 h. Afterward, the plate was washed three times and 100 μL streptavidin-HRP solution was added to each well. After 30 min incubation, the plate was washed again three times and 100 μL of tetramethylbenzidine (TMB) solution was added to each well. The plate was incubated for 15 min in the dark. The reaction was stopped by adding 100 μL of H2SO4 solution. The absorbance was estimated using a spectrophotometer at 450 nm (Microplate Spectrophotometer Thermo Scientific Multiskan GO).
# IL-6 in SW620 cells = experiment: Interleukin-6 ELISA; format: cell-based, human; conditions: SW620, compound at IC50, 72 h
# Description: as §4
# IL-6 in SW480 cells = experiment: Interleukin-6 ELISA; format: cell-based, human; conditions: SW480, compound at IC50, 72 h
# Description: as §4
# IL-6 in PC3 cells = experiment: Interleukin-6 ELISA; format: cell-based, human; conditions: PC3, compound at IC50, 72 h
# Description: as §4
# SW480 [9] = experiment: Annexin V-FITC/PI flow cytometry; format: cell-based, human; conditions: SW480, compound at IC50, 72 h, mean
# Description: (§5) The apoptotic and necrotic cells treated with derivatives 2b, 4a, 4b were detected using FITC Annexin V Apoptosis Detection Kit I (BD Biosciences Pharmingen). Briefly, cells (2 × 10^5 cells/well) were seeded in 6-well plates in supplemented medium. […] Then cells were harvested, washed, and labeled with Annexin V-FITC and propidium iodide (PI) according to the manufacturer’s protocol. The stained cells were analyzed by flow cytometry. The cells were identified as early apoptotic (Annexin V+/PI−) or late apoptotic/necrotic (Annexin V+/PI+).
# PC3 [10] = experiment: Annexin V-FITC/PI flow cytometry; format: cell-based, human; conditions: PC3, compound at IC50, 72 h, mean
# Description: as §5
# SW620 [11] = experiment: Annexin V-FITC/PI flow cytometry; format: cell-based, human; conditions: SW620, compound at IC50, 72 h
# Description: as §5
# HaCaT [12] = experiment: Annexin V-FITC/PI flow cytometry; format: cell-based, human; conditions: compound at IC50, 72 h, mean
# Description: as §5
# [13] = SI = IC50 for normal cell line (HaCaT)/IC50 cancer cell line
smiles,measurement,setting,value
"CC(C)[C@@H]1CC[C@@H](C)C[C@H]1OC(=O)C1C(=O)Oc2ccccc2C1P(=O)(c1ccccc1)c1ccccc1 (mixture of isomers) [Compound 4a, (1R,2S,5R)-2-Isopropyl-5-methylcyclohexyl-4-(diphenylphosphoryl)-2-oxochromane-3-carboxylate]",SI SW480,SW480 [1]; [13],3.28
same,IC50,"SW480 [1]; SW480, MTT, 72 h, human primary colon cancer",4.6 ± 1.01 µM
same,IC50,"PC3 [2]; PC-3, MTT, 72 h, human metastatic prostate cancer",9.8 ± 2.02 µM
same,SI PC3,PC3 [2]; [13],1.53
same,IC50,"MDA-MB-231; MDA-MB-231, MTT, 72 h, human breast adenocarcinoma",25.3 ± 4.59 µM
same,SI MDA-MB-231,MDA-MB-231; [13],0.60
same,SI SW620,SW620 [3]; [13],2.21
same,IC50,"SW620 [3]; SW-620, MTT, 72 h, human metastatic colon cancer",6.8 ± 0.55 µM
same,IC50,"[4]; Table S7, >100 entered as 100, read-out: mean anticancer IC50",11.6 µM
same,IC50,[4]; read-out: average IC50 against tested cancer cell lines,11.6 µM
same,viability at 72 h,Trypan blue assay,96%
same,cell number,SW480 [5]; mean,0.72 x106
same,viability (%),SW480 [5]; mean,93.66%
same,reduction of number of live cells,SW480 [5]; vs control,79.9%
same,cell number,PC3 [6]; mean,2.5 x106
same,viability (%),PC3 [6]; mean,94.33%
same,reduction of number of live cells,PC3 [6]; vs control,62.1%
same,cell number,SW620 [7]; mean,1.86 x106
same,viability (%),SW620 [7]; mean,98%
same,reduction of number of live cells,SW620 [7]; vs control,47.6%
same,cell number,HaCaT [8]; mean,4.26 x106
same,reduction of number of cells,HaCaT [8]; vs control,31.9%
same,IL-6 concentration,IL-6 in HaCaT cells; ELISA,7.5 ± 1.13 pg/mL
same,reduction of IL-6 concentration,IL-6 in HaCaT cells; vs control,26.5%
same,IL-6 concentration,IL-6 in SW620 cells; ELISA,0.9 ± 0.27 pg/mL
same,reduction of IL-6 level,IL-6 in SW620 cells; vs control,69.1%
same,IL-6 concentration,IL-6 in SW480 cells; ELISA,0.9 ± 0.33 pg/mL
same,reduction of IL-6 level,IL-6 in SW480 cells; vs control,77.6%
same,IL-6 concentration,IL-6 in PC3 cells; ELISA,0.6 ± 0.09 pg/mL
same,reduction of IL-6 level,IL-6 in PC3 cells; vs control,87.2%
same,Early apoptosis [%],SW480 [9],1.95%
same,Late apoptosis [%],SW480 [9],48.95%
same,Necrosis [%],SW480 [9],1.80%
same,Early apoptosis [%],PC3 [10],48.3%
same,Late apoptosis [%],PC3 [10],44.75% and 44.8%
same,Necrosis [%],PC3 [10],0.65%
same,Early apoptosis [%],SW620 [11]; mean,11.75%
same,Late apoptosis [%],SW620 [11]; mean,8.80%
same,Necrosis [%],SW620 [11]; mean,1.45%
same,both late apoptosis and necrosis,SW620 [11]; sum,10.25%
same,Early apoptosis [%],HaCaT [12],8.90%
same,Late apoptosis [%],HaCaT [12],3.40%
same,Necrosis [%],HaCaT [12],0.08%
